Experimental data published in article PMC8647499, “Preclinical evaluation of strasseriolides A–D, potent antiplasmodial macrolides isolated from Strasseria geniculata CF-247,251” (Malaria Journal, 2021).
Several values for one entry are separate records, joined by “and”; a condition that tells them apart may be missing. Equal entries are not always repeated.

How the values were obtained:
mice = experiment: In vivo toxicity in mice after i.v. injection; conditions: mouse, in vivo, iv, 25 mg/kg
Method: Three Balb/C mice (6–8 weeks old) were intravenously injected with 25 mg/kg of strasseriolide D dissolved in 200 µL of vehicle (0.5%HPMC, 0.5% Tween 80 and 0.5% Benzyl alcohol in water). Blood samples were collected by pricking the […] on the leg of each mouse at time points 1.5 (T 1.5 h), 5 (T 5 h) and 24 h (T 24 h). From the harvested blood, 50 µL plasma were prepared for all the samples and stored at -80 °C until needed. A previously developed LC–MS–MS method (see supporting information) was used to determine the plasma concentration of strasseriolide D as described below.
Similar sample preparation and LC–MS–MS analysis were respectively performed for mice intravenously injected with strasseriolides A and C as test compounds and mice blood samples collected at 30 min (T 30 M), 2 h (T 2 h), 6 h (T 6 h) and 24 h (T 24 h). […] For strasseriolides A, B and C as test compounds; strasseriolides C, D and B were respectively used as internal standards. After LC–MS–MS analysis, the plasma concentration of compound vs. time data was determined for each strasseriolide.
Animals were observed individually at 15, 30 and 60 min after dosing and periodically during the first 24 h for any clinical signs of toxicity or mortality. The toxicity evaluation was carried out by observing behaviour parameters, including the Grimace scale parameters. The mice were sacrificed, and the main organs were examined by visual inspection during autopsy.

[1] = tested on: transgenic P. berghei line 676m1cl1 (PbGFP-Luccon), ANKA strain; experiment: In vivo efficacy in P. berghei infected mice (luciferase activity); set-up: species or system Plasmodium berghei in Swiss Webster female mice; conditions: for Parasitaemia (Luminescence arbitrary units), Average ± SD: 4 days from 48 h post-infection; for in vivo activity (in words): strasseriolide D 22 mg/kg i.p. (p < 0.01 vs. vehicle), strasseriolide C 50 mg/kg i.p. (not statistically significant); for parasitaemia level lower compared to controls treated with vehicle: strasseriolide D 22 mg/kg i.p., strasseriolide C 50 mg/kg i.p., 4 days
Method: In vivo efficacy experiments were performed at the Anti-infectives Screening Core Services facility of the New York University School of Medicine. The transgenic P. berghei line 676m1cl1 parasite (PbGFP-Luccon) expressing the fusion GFP (mutant 3) and firefly luciferase (LucIAV) proteins generated in the reference clone of ANKA strain cl15cy1 was used. Swiss Webster female mice were infected with transgenic P. berghei line 676m1cl1 (PbGFP-Luccon) ANKA-infected 10³ red blood cells. Treatment was then started 48 h post-parasite infection by i.p. dosage of 22 mg/kg of strasseriolide D and 50 mg/kg of strasseriolide C. Vehicle only (PBS 2% methylcellulose, 0.5% Tween 80) and 20 mg/kg chloroquine were used as negative and positive controls. The infected mice were treated for four days, after which luciferase activity of the parasites was quantified 5 to 10 min after i.p. injection of 150 mg/kg D-Luciferin Potassium-salt (Goldbio) dissolved in PBS using an IVIS® Lumina II imager on the fifth day.
The Genedata Screener online application (Genedata AG, Basel, Switzerland) was used to compute IC50 values. The Smart Fit strategy with Hill model was selected as the choice for curve fitting. Where applicable, data are presented as mean ± standard deviation (SD). In Fig. 3, the significant differences between the vehicle controls and test compounds were calculated by the Student’s t test.

[2] = Metabolic stability assay in human liver microsomes; type: in vitro ADME; conditions: for half-life: pH 7.4, 1 mg/mL protein; for Clearance Category: ranked by CLint
Method: Pretreatment of the 96-well ABgen-0765 reaction plates was the same as previously described above. Two microlitres (2 µL) of compounds (previously dissolved in DMSO) were pre-incubated with 98 µL of cofactor/buffer solution (0.1 M phosphate buffer of pH 7.4, 100 mM K3PO4, 3.3 mM MgCl2, 3.3 mM G6P, 1.3 mM NADPH, and 0.4 u/mL G6PDH) at 37 °C for 10 min. The reactions were then initiated by the addition of 100 µL of HLM solution (at final protein concentration of 1 mg/mL), after which they were stopped at pre-determined incubation times of 0, 10, 15, 30, 45 and 60 min by adding 90 µL acetonitrile containing internal LC–MS–MS standards and shaking at 180 Hz. The samples were centrifuged to sediment the protein precipitates and the supernatants were analysed by LC–MS–MS as previously described above. The integration of each analyte (the […]) and internal standard peak area was performed by the Analyst® software version 1.5.2 and used to calculate the percentage of remaining compound at each incubation time. The natural logarithm of the percentage of the remaining parent compound was plotted against the incubation time and used to calculate the half-life by the following equation:
Half-life (T ½ min) = 0.693/k, where k is the slope of a plot of the natural log of the percentage parent compound remaining vs. time.
The intrinsic clearance (CLint) was determined by the equation: CLint
=Ln2/t1/2min∗volumeincubationmL/microsomalproteinmg∗45MPPGL1500ghumanliver/70kghumanbodyweightj
Units for CLint were expressed as mL/min/mg microsomal protein and MPPGL = mg microsomal protein per gram liver.

SMILES	in vivo toxicity / mortality in mice (mice; Balb/C, 24 h)	in vivo toxicity / mortality in mice (mice)	Parasitaemia (Luminescence arbitrary units), Average ± SD ([1]; Table S7/Fig. 3A experiment: strasseriolide C 50 mg/kg i.p., chloroquine 20 mg/kg, read day 5, four replicates)	in vivo activity (in words) [1]	parasitaemia level lower compared to controls treated with vehicle [1]	half-life [2]	Clearance Category [2]	Parasitaemia (Luminescence arbitrary units), Average ± SD ([1]; Table S8/Fig. 3B experiment: strasseriolide D 22 mg/kg i.p., chloroquine 20 mg/kg, read day 5, five replicates)	Parasitaemia (Luminescence arbitrary units), single replicates ([1]; Table S8 experiment: strasseriolide D 22 mg/kg i.p., chloroquine 20 mg/kg, individual mice)
C/C1=C\[C@H](C)C(=O)C[C@@H](O)/C(C)=C/[C@H](C)C[C@@H](C)CC[C@@H]([C@@H](C)C(=O)O)OC(=O)[C@@H](C)C1 [Strasseriolide C, strasseriolide C]	survived until 24 h post-i.v. injection	non-toxic	3.66 × 10^6 ± 2.23 × 10^6 Luminescence arbitrary units	moderate in vivo activity	30%	15.9 ± 1.15 min	Medium		
C/C1=C\[C@H](C)[C@@H](O)C[C@@H](O)/C(C)=C/[C@H](C)C[C@@H](C)CC[C@@H]([C@@H](C)C(=O)O)OC(=O)[C@@H](C)C1 [Strasseriolide D, strasseriolide D]	survived until 24 h post-i.v. injection	non-toxic		significantly lowered parasitaemia in vivo	70%	> 60 min	Low	1.25 × 10^5 ± 1.04 × 10^5 Luminescence arbitrary units	2.56 × 10^4 Luminescence arbitrary units and 6.93 × 10^3 Luminescence arbitrary units
